Source: article PMC7450938, “Prenatal to early postnatal neurotrophic treatment prevents Alzheimer-like behavior and pathology in mice” (Alzheimer's Research & Therapy, 2020)

Columns and labels:
3xTg-AD mice = test: Novel object recognition test; assay type: in vivo, mouse; conditions: 3xTg-AD offspring, 3-4 months; P021 diet 60 nmol/g E8-PND21; 20-min delay, 5-min test phase; 3xTg-Vh vs 3xTg-P021 P = 0.0007
Description: Pregnant 3xTg-AD and wild-type (WT) mice were treated with compound P021 in mouse chow, or as control with vehicle feed from gestational day 8 (E8) till their offspring/pups reached PND21, at which point the offspring were separated from their mother and put on normal mouse chow (Fig. 1). There were four study groups of mice, as follows: offspring of WT treated with vehicle diet (WT-Vh, n = 10), offspring of WT treated with P021 diet (WT-P021, n = 17), offspring of 3xTg-AD treated with vehicle diet (3xTg-Vh, n = 12), and offspring of 3xTg-AD treated with P021 diet (3xTg-P021, n = 18). Elevated plus maze, novel object recognition test, and Morris water maze were carried out consecutively from postnatal day 90 with all of mice. About 50% (4 animals/group) of the female offspring (n = 7–8 animals/group) were sacrificed at 4 months of age and the remaining 50% (3–4 animals/group) at 22 months of age. […]
The novel object recognition memory task has been used to evaluate hippocampus-dependent memory in rodents through an evaluation of the differences in the exploration time of novel and familiar objects. […] The object discrimination index (DI) during the test phase was calculated as DI = [(time spent exploring the new object − time spent exploring the old object)/(time spent exploring both old and new objects)] × 100%.

P-tau (Ser396/404) = test: PHF-1 immunofluorescence, hippocampal CA1; assay type: in vivo, mouse; conditions: hippocampal CA1 region, 22-month-old 3xTg-AD mice; P021 diet E8-PND21; vs 3xTg-Vh
Description: (§1) We treated 2- to 3-month-old pregnant 3xTg-AD and WT mothers with compound P021 in mouse chow, or with vehicle feed as control at E8 until their offspring/pups reached PND21, at which point the offspring were separated and put on standard mouse chow (Fig. 1). Treatment was administered as 60 nmol peptide/g formulated diet (Research Diets; New Brunswick, NJ, USA). The vehicle-treated control animals received the same diet but without the peptide. On average, each mouse consumed ~ 2.7 g diet/day.
(§2) The complete right hemisphere was immersion-fixed in 4% paraformaldehyde in 0.1 M PBS for 24–48 h, followed by cryoprotection in a 30% sucrose solution at 4 °C overnight. Later, the 40-μm-thick sagittal sections were cut on a freezing microtome. […]
(§3) Immunofluorescence staining was performed on free-floating sections, and every 12th brain section was chosen for densitometry and quantification. For immunohistochemical quantification, six brain sections of four animals per group were analyzed. All stainings for fluorescence-intensity quantification were carried out under identical conditions, including all tissue samples for a particular staining processed at the same time, and experimental and control sections photographed under identical settings. […]

Iba-1, GFAP = test: Western blots of Iba-1 and GFAP in hippocampus; assay type: in vivo, mouse; conditions: for increase of GFAP: 3xTg-AD mice, P021 diet E8-PND21, n = 3-4/group; for expression of Iba-1: among groups
Description: as §1
The tissue from the left cerebral hemisphere from each mouse stored at− 80 °C was homogenized in a Teflon-glass homogenizer to generate 10% (w/v) homogenate. The pre-chilled homogenization buffer contained 50 mM Tris–HCl (pH 7.4), 8.5% sucrose, 2 mM EDTA, 2 mM EGTA, 10 mM β-mercaptoethanol plus the following protease and phosphatase inhibitors: 0.5 mM AEBSF, 10 μg/mL aprotinin, 10 μg/mL leupeptin, 4 μg/mL pepstatin, 5 mM benzamidine, 20 mM β-glycerophosphate, 50 mM sodium fluoride, 1 mM sodium orthovanadate, and 100 nM okadaic acid. Each homogenate was boiled in 2× Laemmli sample buffer for 5 min, and protein concentration was measured by PierceTM 660-nm protein assay (Thermo Scientific; Rockford, IL, USA).
The samples were subjected to 10% SDS-PAGE and electro-transferred onto Immobilon-P membranes (EMD Millipore; Billerica, MA, USA). The blots were then probed with primary antibodies (Table 1) and developed with the corresponding HRP-conjugated secondary antibody and enhanced chemiluminescence (Pierce Biotechnology, Rockford, IL, USA). Densitometric quantification of protein bands in Western blots was analyzed using Multi Gauge version 3.0 software (FUJIFILM North America; Valhalla, NY, USA).

GFAP = GFAP immunofluorescence, CA1; assay type: in vivo, mouse; conditions: P021 diet E8-PND21
Description: as §1, §2, §3

[1] = no method and no reference printed for this sentence, next sentence ref 22, cited from earlier work
Description: P021 is quite stable in artificial gastric juice (~ 90% during 30 min) and in artificial intestinal juice (> 95% during 120 min).

[2] = test system: Ts65Dn trisomic Down syndrome mouse model; conditions: Ts65Dn mice, prenatal to early postnatal treatment; cited from earlier work
Description: The prenatal to early postnatal period is highly susceptible to epigenomic dysregulation with implications for health. […] Stress and hormones, such as glucocorticoids, testosterone, and estradiol, mediate the development of the brain during critical prenatal and early postnatal periods.

Q: For “Ac-DGGL^AG-NH2 [P021, 4-mer CNTF small molecule peptide mimetic to which adamantylated glycine was added at the C-terminal]”, which “discrimination index in the test phase” value (3xTg-AD mice) is on record?
A: improved

Q: What about the “PHF-1 immunofluorescence, percent area” value (P-tau (Ser396/404)) of the same substance?
A: attenuated

Q: And the “increase of GFAP” value (Iba-1, GFAP; 4 months)?
A: rescued

Q: And the “expression of Iba-1” value (Iba-1, GFAP; 4 months)?
A: no significant changes

Q: And the “increase of GFAP” value (Iba-1, GFAP; 22 months)?
A: rescued

Q: And the “expression of Iba-1” value (Iba-1, GFAP; 22 months)?
A: no significant changes

Q: What about the “astrocyte morphology at high magnification” value (GFAP; CA1, 22-month-old 3xTg-AD mice, 3xTg-Vh astrocytes amoeboid) of the same substance?
A: ramified with long processes and small cell body (resting phenotype)

Q: And the GFAP immunoreactivity (GFAP; CA1 region, 22-month-old 3xTg-AD mice)?
A: rescued

Q: What about the “stability in artificial gastric juice” value ([1]; during 30 min) of the same substance?
A: ~ 90%

Q: And the “stability in artificial intestinal juice” value ([1]; during 120 min)?
A: > 95%

Q: What about the “developmental delay and cognitive impairment at adult age” value [2] of the same substance?
A: rescues developmental delay and at adult age cognitive impairment
